Experimental data: US6586460B1, “Heteroarotinoids containing urea or thiourea linker” (The Board of Regents for Oklahoma State University, priority 2001, dated 2003)

Key:
[1] = tested on: SW962 vulvar carcinoma cultures; experiment: Apoptosis assay, Annexin-V-Flous/propidium iodide flow cytometry; type: cell-based
Text: Optimal chemotherapeutic agents will selectively kill tumor cells by inducing a natural form of cell death which is called “apoptosis”. Toxic agents kill both normal and tumor cells via a nonspecific process known as “necrosis”. To differentiate between apoptosis and necrosis in heteroarotinoid-treated cultures, a flow cytometric assay was employed. Treated cultures were stained with Annexin-V-Flous and propidium iodide, and the intensities of the stains are quantitated with Flow Cytometry. The Annexin-V-Flous binds to phosphatidyl serine on the exterior of apoptosing cells. This assay is specific for apoptosing cells because phosphatidyl serine is normally located on the inner membrane of the cells, a situation whereby the serine derivative cannot be bound by Annexin. However, during apoptosis, phosphatidyl serine is translocated to the outer membrane. The Flous moiety emits a signal that can be detected and quantitated by Flow Cytometry. In contrast, propidium iodide is taken up by necrotic cells that have lost membrane integrity. In this study, t-RA was used as a control for the non-apoptotic retinoids, and 4-HPR was used as a control for the apoptotic retinoids.

[2] = tested on: OVCAR-3 cells; experiment: In vivo tumor xenograph; design: species or system athymic nu/nu mice; conditions: 10 mg/kg/day p.o.; for tumor growth (average tumor volume, FIG. 1): 5 days/week, beginning 35 days after implantation; for sizes of the tumors compared with control group treated with sesame oil alone: after 15 days of treatment, t-test P<0.05
Experimental: Thirty female athymic nu/nu mice (Charles Rivers Laboratories, Wilmington, Mass.) were housed in a laminar flow room under sterile conditions at 83-85° F. The mice were quarantined for one week prior to the beginning of the study and were allowed access to autoclaved food (Purina 5001 mouse/rat sterilized diet, St. Louis, Mo.) and water ad libitum. Then OVCAR-3 cells in log phase growth were harvested by trypsinization, resuspended in RPMI culture medium, and centrifuged at 3000 rpm for 10 min. The pellets were then resuspended in RPMI culture medium at a concentration of 7×10^6 cells/mL before implantation into mice. Animals were injected with 3.5×10^6 cells into right scapular region with a 24-gauge needle/1 mL tuberculin syringe (Becton Dickinson, Rutherford, N.J.). Twenty four hours after tumor implantation, animals were randomized into four treatment groups of 5 animals each. Retinoids were administered daily p.o. beginning 35 days after tumor implantation with a 20-gauge intragastric feeding tube (Popper & Sons, New Hyde Park, N.Y.), 5 days/week, at doses of 10 mg/kg/day in 0.1 mL of super refined sesame oil (Corda, Inc., Parisppany, N.J.). Tumors were measured with calipers weekly, and tumor volumes were calculated using the formula: volume=length×width×heigth. Animal weights and clinical signs of overall health status and cutaneous toxicities were recorded weekly. Agents 11 and 13 were evaluated against the 4-HPR standard. FIG. 1 illustrates the overall changes in tumor volumes found in the mice in these experiments. […] The animals were monitored daily for signs of toxicity, such as skin eczema and bone fractures, but none were observed. This is added evidence that these heteroarotinoids are strong candidates for cancer chemotherapy.

[3] = Liver toxicity (plasma ALT activity, liver sections); type: in vivo; conditions: 10 mg/kg/day p.o.; for liver toxicity (ALT activities, liver sections assessed by pathologist): mice
Text: Toxic compounds can induce livers to release enzymes called serum transaminases, such as alanine aminotransferase (ALT). The assay for ALT is the most universally accepted clinical laboratory marker used to evaluate hepatic toxicity induced by pharmaceuticals [See “Serum Transferase Elevations as Indicators or Hepatic Injury Following the Administration of Drugs”, Reg. Tox. Pharm., volume 27, 1998, pp 119-130, by D. E. Amacher]. At the end of the treatment period, blood was drawn from each animal. Plasma was separated by centrifugation and stored at −70° C. The activity of ALT was determined in aliquots of plasma by standard spectrophotometric enzymatic techniques which were based upon the reduction of pyruvate by lactate dehydrogenase [See “Aged Mice are Resistant to the Hepatotoxic Effects of Endotoxin and Galactosamine” in Exp. Mol. Pathology, volume 59, 1993, pp 27-37]. The method measures the disappearance of NADH from time of incubation at 37° C. The activities have been expressed in μm/Liter/min (Table VI). Two different amounts of plasma were utilized in each assay to assure the measurement of the maximum rate.
There were no statistically significant differences between the ALT activities in the different treatment groups (Table VI, t-test: P>0.05). All numbers were in the normal range (63 to 307 μm/Liter/Min) of ALT values for the species of mouse utilized. All liver sections were assessed by an experienced pathologist in a blinded manner. The degree of necrosis was very mild in all animals.

[4] = tested on: RARE reporter in the SW962 vulvar carcinoma cell line; experiment: RARE reporter transactivation through endogenous receptors; type: cell-based
Experimental: Both heteroarotinoids 11 and 13 resemble 4-HPR in that all are potent inducers of apoptosis. Since 4-HPR acts through a receptor-independent mechanism, agent 11 was evaluated for ability to transactivate a RARE reporter through endogenous receptors in the SW962 vulvar carcinoma cell line. […] Nelson, S. Subramanian, G. M. Weerasekare, J. B. Gale, M. K. Patterson, Jr., B. Wang, W. Wang, S. Lu, T. C. Rowland, P. DiSivestro, C. Lindamood, D. L. Hill, and K. D. Berlin]. No induction of the retinoid receptors was observed although 9-cis-RA casued a 4 to 10 fold induction of RARE-driven transcription in the same experiment with the SW962 cell line.

[5] = tested on: retinoic acid receptors; experiment: CV-1 co-transfection assay; type: cell-based

CC1(C)CC(C)(C)c2cc(NC(=S)Nc3ccc([N+](=O)[O-])cc3)ccc2S1 [heteroarotinoid 11]
Percentage of induction of apoptosis in SW962 vulvar carcinoma cultures ([1]; Days 0): 3% | Percentage of induction of apoptosis in SW962 vulvar carcinoma cultures ([1]; Days 1): 6.11% | Percentage of induction of apoptosis in SW962 vulvar carcinoma cultures ([1]; Days 2): 11.42% | Percentage of induction of apoptosis in SW962 vulvar carcinoma cultures ([1]; Days 3): 39.06% | Percentage of induction of apoptosis in SW962 vulvar carcinoma cultures ([1]; Days 4): 48.79% | Percentage of induction of apoptosis in SW962 vulvar carcinoma cultures ([1]; Days 7): 47.5% | apoptosis in the SW962 vulvar cell, comparison in words ([1]; Table IV): superior to the clinically used agent 4-HPR | tumor growth (average tumor volume, FIG. 1) [2]: inhibited tumor growth | sizes of the tumors compared with control group treated with sesame oil alone [2]: significantly smaller | liver toxicity (ALT activities, liver sections assessed by pathologist) [3]: do not appear to induce significant liver toxicity | ALT ACTIVITY ([3]; plasma of mice at end of treatment period): 118.5 ± 153.4 μm/Liter/Min | induction of RARE-driven transcription [4]: No induction | transactivation of each of the retinoic acid receptors [5]: No transactivation

CCOC(=O)c1ccc(NC(=O)Nc2ccc3c(c2)C(C)(C)CC(C)(C)S3)cc1 [heteroarotinoid 13]
tumor growth (average tumor volume, FIG. 1) [2]: inhibited tumor growth | sizes of the tumors compared with control group treated with sesame oil alone [2]: significantly smaller | liver toxicity (ALT activities, liver sections assessed by pathologist) [3]: do not appear to induce significant liver toxicity
